Laboratory results as given in US7470669B2, “Isolated polypeptide comprising a leptin fragment” (Serono Genetics Institute, S.A., priority 1999, dated 2008).

Assays:
[1] = system: LSR; experiment: Ligand blot of 125I-leptin on LSR complexes immunoprecipitated from PLC cells; type: binding, human; settings: PLC cell lysates; complexes of 200 and 230 kDa
Protocol: FIGS. 4A, 4B, 4C, and 4D show LSR binding and degradation of ^125I-leptin in human hepatocytes, and the effect of 81B anti-LSR antibody. For FIG. 4A, PLC cells were lysed (3-T175 cm^2 flasks per condition) and immunoprecipitated with irrelevant or 81B anti-serum. The immunoprecipitates were washed, were separated on 10% SDS-polyacrylamide gels under nondenaturing conditions, and were transferred to nitrocellulose. Ligand blots using ^125I-leptin were then performed as described in FIG. 2. For FIG. 4B, confluent monolayers of PLC cells were incubated at 37° C. for 30 min with 100 nM insulin, were washed, and then were incubated for 30 min at room temperature in the presence of anti-LSR peptide 81B antibody (▪), or irrelevant (□) IgG. After this, the cells were incubated at 37° C. for 2 h with increasing concentrations of ^125I-leptin in Buffer A. The monolayers were washed, and the amount of ^125I-leptin degraded was determined as described herein. Results are shown as the mean of duplicate (irrelevant IgG) or triplicate (anti-LSR peptide IgG) determinations. FIG. 4C is a schematic diagram of the motifs found from the predicted protein sequence of LSR α cDNA. […] After washing and incubation with goat-anti-rabbit FITC-conjugated antibody, the cells were fixed and analyzed by flow cytometry using a FACSCalibur (Becton Dickinson). […]

[2] = system: LSR; experiment: 125I-leptin degradation in PLC cells; type: cell-based, human; settings: PLC cells, 2 h incubation
[3] = system: LSR mRNA; experiment: Northern blot of LSR mRNA in leptin-treated rat hepatocytes; type: cell-based; settings: rat hepatocytes after 30 min leptin treatment
Protocol: Northern blots were performed as described previously using as a probe clone 18251 described above (Yen F. T., Masson M., Clossais-Besnard N., Andre P., Grosset J. M., Bougueleret L., Dumas J. B., Guerassimenko, O., and Bihain B. E. (1999). J Biol Chem 274, 13390-13398).

[4] = system: LSR; experiment: 125I-chylomicron binding to primary rat hepatocytes; type: cell-based; settings: 20 ng/mL leptin with 0.5 mM oleate
Protocol: FIGS. 6A, 6B, and 6C show the effect of leptin on ^125I-LDL and ^125I-chylomicron binding to LSR in primary cultures of rat hepatocytes. For FIG. 6A, primary cultures of rat hepatocytes (48 hours after plating) were incubated at 37° C. for 30 min in the absence (□) or presence (▪) of 50 ng/mL leptin in Buffer A, followed by a 20 min incubation at 37° C. with 0.5 mM oleate. The cells were then washed with ice-cold PBS, precooled for 10 min, and then incubated for 1 h at 4° C. with increasing concentrations of ^125I-LDL in Buffer A. Cells were washed, were lysed in 0.1 N NaOH and were counted for radioactivity. Results are shown as the mean of duplicate determinations. For FIG. 6B, primary cultures of rat hepatocytes were incubated at 37° C. for 30 min with or without 20 ng/mL leptin followed by incubation at 37° C. for 4 h with 6 μg protein/mL ^125I-chylomicrons in the absence or presence of 0.5 mM oleate in Buffer A. The cells were then washed and the ^125I-chylomicrons bound to the cell surface were released into the media by incubation with 10 mM suramin. The media was recovered and the radioactivity was measured. Results are shown as the mean±SD of six determinations. […] The amount of ^125I-chylomicrons bound was determined, and results are shown as means±SD of triplicate (irrelevant) or quadruplicate (anti-LSR) determinations. […]

leptin: plasma protein of 16 kDa produced by adipocytes; recombinant human or mouse leptin, species depends on the experiment
binding of 125I-leptin to multimeric complexes precipitated by the 81B antibody [1]: binds directly | leptin concentration at which 125I-leptin degradation saturated [2]: ≥ 10 ng/mL | LSR mRNA levels (Northern blots) [3]: did not increase mRNA levels significantly | binding of chylomicrons to rat hepatocytes [4]: additive stimulatory effect
